Among the test systems are NCI-H23; SF-268; CAKI-1; SF-295; KM12; TK-10; ACHN; SNB-75; HT-29; IGROV-1; OVCAR-5; M14; SR; SK-MEL-28; UO-31; HOP-62; SN12C.
Holding throughout (assay): NCI tumour cell line growth inhibition, 48 h

The source of these data is ChEMBL document CHEMBL1201862, “PubChem BioAssay data set” (2004).

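Five concentrations, 48 hours, 96-well plates. At the GI50, growth is halved.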 Calls of active or inactive are those of the source. Rule as the data show it: active = GI50 up to about 1.1 µM and inactive = higher.

Turning to `O=S(=O)(c1ccccc1)C1CN2OC1(S(=O)(=O)c1ccccc1)CC21CCCCC1` (configuration not stated), the GI50 in the assay on NCI-H23 was > 100 µM (inactive); in the assay with SF-268, > 100 µM (inactive); in the assay on CAKI-1 it was 73.3 µM (inactive); in the assay on SF-295, > 100 µM (inactive); with KM12, > 100 µM (inactive); in the assay with TK-10 it was > 100 µM (inactive). Further, the GI50 in the assay with ACHN, in the assay on SNB-75, with HT-29, in the assay on IGROV-1, in the assay on OVCAR-5 and in the assay with M14 was > 100 µM (inactive) in each case. Also, the GI50 in the assay with SR is 52.6 µM (inactive); with SK-MEL-28 it was > 100 µM (inactive); in the assay on UO-31 it was 42.9 µM (inactive); with HOP-62, > 100 µM (inactive); in the assay with SN12C it was > 100 µM (inactive).

Regarding `CC(C)(C)C1CCC(CI)(N=[N+]=[N-])CC1` (configuration not stated), the GI50 in the assay with NCI-H23, with SF-268, with CAKI-1, in the assay with SF-295, in the assay with KM12 and in the assay on TK-10 was > 100 µM (inactive) each time. The GI50 with ACHN, in the assay on SNB-75, with HT-29, in the assay with IGROV-1, in the assay on OVCAR-5 and in the assay with M14 was > 100 µM (inactive) each time. Also, the GI50 in the assay on SR is 33.7 µM (inactive); with UO-31, > 100 µM (inactive); with HOP-62 it was > 100 µM (inactive); in the assay on SN12C, > 100 µM (inactive).

Regarding `CC1=C2C(=O)C(C)(C)C=C2C(=O)[C@](C)(O)C12CC2` [DEHYDROILLUDIN M], the GI50 in the assay on NCI-H23 was 0.499 µM (active); in the assay on SF-268 it was 0.521 µM (active); in the assay on CAKI-1 it was > 1 µM (active); in the assay with SF-295, 0.585 µM (active); in the assay on KM12, > 0.935 µM (active); in the assay with TK-10, > 1 µM (active). Besides, the GI50 is 0.552 µM (active) with ACHN; > 1 µM (active) in the assay with SNB-75; 0.248 µM (active) in the assay with HT-29; > 1 µM (active) in the assay with IGROV-1; > 1 µM (active) with OVCAR-5; 0.678 µM (active) in the assay with M14. For the same compound, the GI50 in the assay on SR was 0.61 µM (active); with SK-MEL-28 it was > 1 µM (active); in the assay with UO-31 it was > 1 µM (active); with HOP-62, > 1 µM (active); with SN12C, > 1 µM (active).

For `COc1ccc2c(c1)CCC(OS(=O)(=O)CC13CCC(CC1=O)C3(C)C)C2=O` (configuration not stated), the GI50 is 17.3 µM (inactive) in the assay with NCI-H23; 22.1 µM (inactive) with SF-268; 40.6 µM (inactive) in the assay on CAKI-1; 19.5 µM (inactive) with KM12; 39.6 µM (inactive) with TK-10; 35.8 µM (inactive) in the assay on ACHN. Besides, the GI50 is 31.1 µM (inactive) in the assay with SNB-75; 37.2 µM (inactive) in the assay on OVCAR-5; 29.5 µM (inactive) in the assay with M14; 24.9 µM (inactive) in the assay on SR; 36.3 µM (inactive) in the assay on SK-MEL-28; 35.6 µM (inactive) in the assay with UO-31. In addition, the GI50 with HOP-62 is 29.2 µM (inactive); in the assay on SN12C, 19 µM (inactive).

With `Cc1[nH]c(=O)nc(N/N=C/c2ccc(O)cc2)c1C(=O)Nc1ccc(Cl)cc1`, the GI50 in the assay on SF-268, in the assay on CAKI-1, in the assay on KM12, in the assay on TK-10, with ACHN and in the assay with SNB-75 was > 100 µM (inactive) each time. The GI50 in the assay on IGROV-1 is > 100 µM (inactive); in the assay with M14, 45.5 µM (inactive); in the assay on SR, > 100 µM (inactive); in the assay on SK-MEL-28, > 100 µM (inactive); with UO-31, > 100 µM (inactive); in the assay on HOP-62, > 100 µM (inactive). For the same compound, in the assay with SN12C, the GI50 was > 100 µM (inactive).

Turning to `CCN(CC)CCNc1ccc2nnn3c4ccc(C)cc4c(=O)c1c23`, the GI50 in the assay on NCI-H23 is 11.7 µM (inactive); with SF-268, 10.2 µM (inactive); in the assay with CAKI-1, 13.2 µM (inactive); in the assay with SF-295 it was 5.02 µM (inactive); in the assay with KM12 it was 4.56 µM (inactive); with TK-10, 12.2 µM (inactive). In addition, the GI50 is 5.45 µM (inactive) with ACHN; 10.8 µM (inactive) in the assay with SNB-75; 4.14 µM (inactive) in the assay with HT-29; 10.4 µM (inactive) in the assay with IGROV-1; 6.71 µM (inactive) in the assay with OVCAR-5; 12.8 µM (inactive) in the assay on M14. For the same compound, the GI50 is 3.37 µM (inactive) in the assay on SR; 15.5 µM (inactive) with SK-MEL-28; 10.2 µM (inactive) in the assay with UO-31; 14.9 µM (inactive) in the assay with HOP-62; 8 µM (inactive) in the assay with SN12C.

For the compound `COc1cc2c(cc1OC)C(CC(=O)NN=C(C)C)NCC2` (configuration not stated), the GI50 in the assay with NCI-H23, with SF-268, with CAKI-1, in the assay with SF-295, in the assay on KM12 and with TK-10 was > 100 µM (inactive) each time. For the same compound, the GI50 in the assay with ACHN, in the assay on SNB-75, in the assay with HT-29, in the assay on IGROV-1, with OVCAR-5 and in the assay with M14 was > 100 µM (inactive) each time. The GI50 in the assay on SR, with SK-MEL-28, with UO-31, with HOP-62 and in the assay on SN12C was > 100 µM (inactive) in each case.

In the case of `COc1ccccc1NC(=O)CC(=O)n1nc(C)c(/N=N/c2ccccc2F)c1C`, the GI50 in the assay with NCI-H23 is > 96.2 µM (inactive); in the assay with SF-268, 28.7 µM (inactive); in the assay with CAKI-1 it was > 100 µM (inactive); in the assay with SF-295, > 52 µM (inactive); with KM12, > 100 µM (inactive); with TK-10, > 100 µM (inactive). Besides, the GI50 with ACHN is > 100 µM (inactive); in the assay with SNB-75 it was 9.46 µM (inactive); with HT-29, > 100 µM (inactive); in the assay with IGROV-1 it was > 100 µM (inactive); in the assay on OVCAR-5, > 100 µM (inactive); with M14 it was > 100 µM (inactive). For the same compound, the GI50 was 71.8 µM (inactive) in the assay on SR; > 100 µM (inactive) with SK-MEL-28; > 100 µM (inactive) with UO-31; 32.6 µM (inactive) in the assay with HOP-62; > 100 µM (inactive) in the assay with SN12C.

Regarding `c1ccc(CN(Cn2cccn2)Cn2cccn2)nc1`, the GI50 in the assay on NCI-H23, with SF-268, in the assay on CAKI-1, in the assay on SF-295, in the assay on KM12 and in the assay on TK-10 was > 100 µM (inactive) in each case. In addition, the GI50 with ACHN, with SNB-75, with M14, in the assay on SR, in the assay on SK-MEL-28 and in the assay with UO-31 was > 100 µM (inactive) in each case. Further, the GI50 with HOP-62 and with SN12C was > 100 µM (inactive) each time.
